Assay results taken from ChEMBL document CHEMBL2331360, “QSAR studies of sulfamate and sulfamide inhibitors targeting human carbonic anhydrase isozymes I, II, IX and XII” (Bioorg Med Chem, 2013).

Legend:
[1] = target: Carbonic anhydrase 9 (Homo sapiens) (UniProt Q16790)
Description: Inhibition of human carbonic anhydrase-9

[2] = target: Carbonic anhydrase 2 (Homo sapiens) (UniProt P00918)
Description: Inhibition of human carbonic anhydrase-2

Structure (SMILES)	log(43000/Ki) [1]	log(43000/Ki) [2]
NS(=O)(=O)Nc1ccc(NC(=O)NC2CCCCC2)cc1	2.55	2.08
NS(=O)(=O)Nc1ccc(NC(=O)Nc2cccc([N+](=O)[O-])c2)cc1	3.43	2.01
CC(C)c1ccccc1NC(=O)Nc1ccc(NS(N)(=O)=O)cc1	2.64	1.8
NS(=O)(=O)Nc1ccc(NC(=O)Nc2ccc(Cl)cc2)cc1	3	2.13
COc1ccc(NC(=O)Nc2ccc(NS(N)(=O)=O)cc2)c(C)c1	3.31	2.14
CCCCOc1ccc(NC(=O)Nc2ccc(NS(N)(=O)=O)cc2)cc1	3.43	2.14
Cc1cc(C)cc(NC(=O)Nc2ccc(NS(N)(=O)=O)cc2)c1	3.63	1.8
NS(=O)(=O)Nc1ccc(NC(=O)Nc2ccccc2-c2ccccc2)cc1	2.47	1.68
NS(=O)(=O)Nc1ccc(NC(=O)NCc2ccccc2)cc1	3.63	2.47
NS(=O)(=O)Nc1ccc(NC(=O)NCc2ccco2)cc1	3.35	2.1
NS(=O)(=O)Nc1ccc(NC(=O)NCCc2ccccc2)cc1	3.59	2.44
COc1ccc(C)cc1NC(=O)Nc1ccc(NS(N)(=O)=O)cc1	3.03	1.99
NS(=O)(=O)Oc1ccc(NC(=O)NC23CC4CC(CC(C4)C2)C3)cc1	3.31	1.96
CC(NC(=O)Nc1ccc(NS(N)(=O)=O)cc1)c1cccc2ccccc12 (stereo not drawn)	3.35	2.02
